Laboratory results published in patent US9790218B2, “Small molecule activators of calcium-activated chloride channels and methods of use” (The Regents of the University of California, priority 2011, dated 2017).

Key:
[1] = system: human bronchi submucosal glands; test: Airway submucosal gland fluid secretion in human bronchi; conditions: 30 μM T16Ainh-A01
Protocol: FIG. 6A-C. Airway submucosal gland fluid secretion in human bronchi. FIG. 6A. TMEM16A immunohistochemistry in CF (left) and non-CF (right) human bronchi showing apical membrane expression in serous gland epithelial cells (arrows). Scale bar: 20 μm. FIG. 6B. Mucous (fluid) secretion in human bronchi. (top) Images of mucus bubbles formed under oil in response to basolateral application of 300 nM carbachol (CCh) and 20 μM Eact. TMEM16A was inhibited by 30 μM T16Ainh-A01. Individual fluid bubbles marked with arrowheads. Scale bar: 0.5 mm. (bottom) CCh and Eact-induced secretion rates. Where indicated, tissues were pre-treated with T16Ainh-A01 (30 μM). Each point is the average of measurements made from 20 glands (mean±S.E. * P<0.05). FIG. 6C. Summary of human gland fluid secretion rates measured at 20 min after addition of 20 μM Eact, and 30 min after application of 300 nM carbachol (CCh) and 10 μM forskolin (20-66 glands from 3 tracheas and 4 bronchus). In CF-bronchi, 6 glands from one donor were stimulated by Eact. […]
Similar staining was found in non-CF and CF human bronchi. Fluid secretion was measured in individual submucosal glands from the increasing size of mucus (fluid) bubbles in which airway fragments were mounted in a 37° C. perfusion chamber and the mucosal solution was covered with oil.

TMEM16A = biological target: T1, TMEM16A (Homo sapiens, UniProt Q5XXA6, DEL476-501); test: Fluorescence plate reader assay of TMEM16A-mediated I^− influx (YFP halide sensor); assay type: cell-based
T1 construct: expressed in transfected cells
T1 sequence (Q5XXA6 with tags, fused parts or gaps isoform Q5XXA6-5 DEL539-564): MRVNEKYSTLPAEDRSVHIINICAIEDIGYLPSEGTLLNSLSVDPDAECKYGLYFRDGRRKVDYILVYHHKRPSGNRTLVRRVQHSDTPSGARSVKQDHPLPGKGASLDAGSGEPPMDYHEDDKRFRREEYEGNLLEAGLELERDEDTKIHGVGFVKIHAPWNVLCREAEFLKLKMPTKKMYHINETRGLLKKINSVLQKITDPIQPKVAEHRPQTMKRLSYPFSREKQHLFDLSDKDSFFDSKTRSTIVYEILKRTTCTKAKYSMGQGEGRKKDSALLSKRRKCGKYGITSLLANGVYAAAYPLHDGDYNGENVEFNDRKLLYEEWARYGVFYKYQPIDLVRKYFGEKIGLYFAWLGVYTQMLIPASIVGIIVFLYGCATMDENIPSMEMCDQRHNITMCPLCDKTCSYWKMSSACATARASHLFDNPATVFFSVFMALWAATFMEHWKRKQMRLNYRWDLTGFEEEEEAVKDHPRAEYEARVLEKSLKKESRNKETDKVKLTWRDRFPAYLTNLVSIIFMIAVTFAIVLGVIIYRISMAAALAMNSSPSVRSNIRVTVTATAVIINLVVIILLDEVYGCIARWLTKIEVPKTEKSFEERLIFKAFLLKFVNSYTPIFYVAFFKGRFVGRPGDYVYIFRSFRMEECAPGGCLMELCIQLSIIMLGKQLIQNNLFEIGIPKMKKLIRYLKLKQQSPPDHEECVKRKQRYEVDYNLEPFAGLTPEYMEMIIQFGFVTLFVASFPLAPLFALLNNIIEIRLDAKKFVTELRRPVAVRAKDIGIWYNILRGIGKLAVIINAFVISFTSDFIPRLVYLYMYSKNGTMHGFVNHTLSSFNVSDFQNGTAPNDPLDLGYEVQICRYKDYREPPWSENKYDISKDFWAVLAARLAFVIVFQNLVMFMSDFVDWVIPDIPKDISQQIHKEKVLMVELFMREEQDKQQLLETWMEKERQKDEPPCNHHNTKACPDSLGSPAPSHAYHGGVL
Protocol: FRT cells were stably transfected with human TMEM16A (TMEM16A(abc), cDNA provided by Dr. Luis Galietta, Gaslini Institute, Genoa, Italy) and the halide sensor YFP-H148Q/1152L/F46L. Cells were plated in 96-well black-walled microplates (Corning Inc., Corning, N.Y.) at a density of 20,000 cells per well in Coon's modified F12 medium supplemented with 5% fetal calf serum, 2 mM L-glutamine, 100 U/mL penicillin and 100 μg/mL streptomycin. The human submandibular cell line A253 (ATCC HTB 41) was cultured in complete McCoy's 5A medium supplemented with 10% fetal bovine serum, 100 U/mL penicillin and 100 μg/mL streptomycin.
TMEM16A activators were identified from screening of ˜110,000 synthetic drug-like compounds, purified natural products and approved/investigational drugs. The cell-based screen employs FRT cells coexpressing human TMEM16A and the I^−-sensing yellow fluorescent protein YFP-H148Q/1152L/F46L. FRT cells were chosen because of their low basal I^− and Cl^− transport, rapid growth on uncoated plastic, strong stable expression of transfected proteins, and formation of tight junctions for measurements of transepithelial short-circuit current (Ma et al., supra).
High-throughput screening was done using an automated screening platform (Beckman) equipped with FluoStar fluorescence plate readers (BMG Lab Technologies, Durham, N.C.) as described (Ma et al., supra). Each well of a 96-well plate was washed 3 times with PBS (200 μL/wash), leaving 50 μL PBS. Test compounds (0.5 μL) were added to each well at […]. After 10 min, 96-well plates were transferred to a plate reader for fluorescence assay. Each well was assayed individually for TMEM16A-mediated I^− influx by recording fluorescence continuously (400 ms per point) for 2 s (baseline), then 50 μL of a 140 mM I^− solution was added. The initial rate of I^− influx was computed from fluorescence data by non-linear regression.
As diagrammed in FIG. 1A, test compounds at 25 μM final concentration were added 10 min prior to I^− addition. The 10 min incubation was chosen to allow for compound transport into cytoplasm and to minimize false positives from compounds that elevate cytoplasmic Ca^2+ transiently. Fluorescence from individual wells of 96-well plates was measured just prior to and for 6 s after I^− addition for computation of initial I^− influx rate.

Structure (SMILES) | effect of pre-treatment on gland fluid secretion [1] | EC50 (TMEM16A) [µM] | TMEM16A conductance, F class SAR (TMEM16A; synthesized F class analogs)
CCc1c(C)nc(SCC(=O)Nc2nc(-c3ccc(OC)cc3)cs2)[nH]c1=O [T16Ainh-A01, reference compound] | abolished basal and agonist-stimulated gland fluid secretion | – | –
O=C(Nc1ccc(Br)cc1)c1cccc(-n2cnnn2)c1 [Fact, N-(4-bromophenyl)-3-(1H-tetrazol-1-yl)benzamide] | – | 37 | increased TMEM16A conductance
